Laboratory results: PMC7144209, “Design, synthesis and anticancer activity of naphthoquinone derivatives” (Journal of Enzyme Inhibition and Medicinal Chemistry, 2020)

Assays:
SGC-7901 = assay: MTT cell viability assay, SGC-7901 cells; assay type: cell-based, human; conditions: n = 3
Experimental: MGC-803, SGC-7901, U87 and SMMC-7721 cell lines were cultured in DMEM supplemented with 10% foetal bovine serum, 100 IU/mL penicillin/streptomycin. The cells were incubated in an atmosphere containing 5% CO2 at 37 °C.
(§1) MGC-803, SGC-7901, U87 and SMMC-7721 cells were plated in 96-well plate at 7000 per well. Cells were incubated with the different concentrations of the compounds for 48 h. Subsequently, MTT (0.5 mg/mL) were used to test the cell viability, then 150 μL DMSO was added to each well after cells were incubated for 4 h and the absorbance was measured at 492 nm.

[1] = system: SGC-7901, MGC-803, SMMC-7721, U-87 cell lines; assay: MTT anticancer activity, summary in words over the cell line panel; assay type: cell-based; conditions: MTT assay
Experimental: as §1
Compounds 1–24 were detected for anticancer activities against SGC-7901, MGC-803, SMMC-7721, U-87 cell lines in vitro by the MTT assay, and ADM was used as the positive control. From Table 1, when the phenolic hydroxyls of naphthoquinone moiety were converted to ether, the activity was missing. […] So colony formation assay of this compound (Figure 4) was used to investigate the effect of it on cell proliferation in SGC-7901 cells. The experiment examined the ability for producing colonies after the cells were treated with the cell death agents[35]^,[36].

[2] = system: PI3K/AKT/MTOR signalling pathway; assay: Western blot of PI3K/AKT/MTOR pathway; assay type: cell-based, human
Experimental: RIPA lysis buffer was used to dissociate the treated cells. Cells were lysed and the supernatant was harvested after centrifuged for 30 min. The cell proteins were separated using Sodium dodecyl sulphate-polyacrylamide gel electrophoresis, and then they were transferred to the PVDF membranes. The membranes were blocked with skimmed milk solution (5%) for 2 h, then incubated with primary antibodies (1:1000, cst) for 20 h at 4 °C. The membranes were detected by chemiluminescence reagent after probed with the secondary antibody for 1 h.
As a therapeutic target for cancer, the PI3K/AKT/MTOR signalling pathway participates in regulating autophagy. Consequently, Western blot experiment was used to explore the impact of compound 12 on the level of phospho-PI3K, phospho-AKT and phospho-mTOR. […] 3-MA (3-methyladenine) is also a PI3K inhibitor[57], so compound 12 (4 μM) with 3-MA (500 μM) were used to treated the cells.

[3] = compound 12 4 μM with 3-MA 500 μM

- IC50 (SGC-7901; 48 h): 4.1 ± 2.6 µM
- IC50 (SGC-7901; Homo sapiens, SGC-7901, 48 h): 4.09 µM
Structure (SMILES): CC(C)=CCC(OC(=O)CCC(=O)Nc1ccc(Oc2ccccc2)cc1)C1=CC(=O)c2c(O)ccc(O)c2C1=O (stereo not drawn) [Compound 12, 1-(5,8-dihydroxy-1,4-dioxo-1,4-dihydronaphthalen-2-yl)-4-methylpent-3-en-1-yl-4-oxo-4-((4-phenoxyphenyl)amino)butanoate]
- anticancer activity (in words) [1]: good activity
- expression of p-AKT ([2]; 1, 2, 4 μM, 48 h): decreased in a dose-dependent manner
- expression of p-MTOR ([2]; 1, 2, 4 μM, 48 h): decreased in a dose-dependent manner
- expression of p-PI3K ([2]; 1, 2, 4 μM, 48 h): decreased in a dose-dependent manner
- ratio of p-AKT/AKT compared with compound 12 alone [2, 3]: increased
- ratio of p-MTOR/MTOR compared with compound 12 alone [2, 3]: increased
- ratio of p-PI3K/PI3K compared with compound 12 alone [2, 3]: increased
